# Test results published in patent US20180271858A1, “SOLUTION FOR ORAL ADMINISTRATION” (OTSUKA PHARMACEUTICAL CO., LTD., priority 2011, published 2018).
# Experiment: solubility in water (statement in the background section)
# Type: physicochemical
# Conditions: compound (I) or a salt thereof
smiles,measurement,value
"O=c1ccc2ccc(OCCCCN3CCN(c4cccc5sccc45)CC3)cc2[nH]1 [compound (I), 7-[4-(4-benzo[b]thiophen-4-yl-piperazin-1-yl)butoxy]-1H-quinolin-2-one]",solubility in water,hardly soluble in water
